Source: patent publication US9802064B2, “Microcapsule comprising glycoprotein derived from plants” (AMOREPACIFIC CORPORATION, priority 2012, dated 2017)

Test: DPPH assay of anti-oxidative (radical scavenging) activity
Format: biochemical
Conditions: 100 μM DPPH, 37° C., 30 minutes, absorbance 517 nm; FIG. 7
Protocol: To evaluate anti-oxidative activity, DPPH (1,1-diphenyl-2-picrylhydrazyl) assay was carried out. The samples used in this test (Doore Co., Ltd.) are as follows.
DPPH assay is a test in which an oxidant called DPPH is used to initiate oxidation and the ability of a sample to be tested in removing radicals is determined. When DPPH meets a material having anti-oxidative activity, it […] electrons to cause radical removing and undergoes a change in color from purple to yellow. Thus, it is possible to observe the oxidative activity of a material easily with the naked eye.
Each sample was introduced to a 96-well plate in an amount of 10 μl, and 100 μM of DPPH was introduced thereto in an amount of 190 μl. After carrying out reaction at 37° C. for 30 minutes, the absorbance was measured at 517 nm. Vitamin C was used as positive control (10, 5, 2.5 μg/ml).

## sodium caseinate [ISAI-022]
  anti-oxidative activity (DPPH radical scavenging): no radical scavenging activity
